Experimental findings from patent publication US11673910B2, “Macrolides with modified desosamine sugars and uses thereof” (Zikani Therapeutics, Inc., priority 2017, dated 2023) are described below.

The structures appear in SMILES notation. Values after ≈ are worked out from the molar mass of the structure shown.

Holding throughout (type): cell-based
Experiment [1] concerns A. baumannii strain MP-15. The experiment can be described thus: Broth dilution MIC determination (CLSI) against A. baumannii strain MP-15. As to conditions: Acinetobacter baumannii, MP15. Summed up: (§1)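 Broth dilution per CLSI guidance gave the MIC for each macrolide. Three activity tiers: MIC not above 4 mg/L (+++); between 8 and below 32 mg/L (++); 32 mg/L or more (+).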
For orientation: Broth dilution looks for growth in wells or tubes with falling amounts of substance.

The subject of experiment [2] is K. pneumoniae strain MP-548. The experiment is described as follows: Broth dilution MIC determination (CLSI) against K. pneumoniae strain MP-548. As to conditions: Klebsiella pneumoniae, MP548. In outline: as §1
A further experiment has as its system S. aureus strain MP-12. The experiment can be described thus: Broth dilution MIC determination (CLSI) against S. aureus strain MP-12. As to conditions: Staphylococcus aureus, MP12, strain MP-12. Summed up: as §1
For experiment [3], the system named is P. aeruginosa strain MP-3. The experiment can be described thus: Broth dilution MIC determination (CLSI) against P. aeruginosa strain MP-3. The conditions noted are these: Pseudomonas aeruginosa, MP3. Summed up: as §1
The next experiment has as its system E. coli strain MP-4. The experiment can be described thus: Broth dilution MIC determination (CLSI) against E. coli strain MP-4. The conditions noted are these: Escherichia coli, MP4. Summed up:
as §1

As usually defined, the MIC is the smallest concentration in the dilution series that meets the test's criterion for growth inhibition. A low value points to inhibition by little substance. Turning to `CC[C@H]1OC(=O)C(C)C(=O)[C@H](C)[C@@H](O[C@@H]2O[C@H](CN(C)C(=O)CN(C)C3CC3)CC(N(C)C)[C@H]2O)[C@](C)(OC)C[C@@H](C)CN[C@H](C)[C@H]2NC(=O)O[C@@]21C` (some centres unmarked) [Compound 172, 3-Descladinosyl-3-oxo-6-O-methyl-N9a-desmethyl-11,12-dideoxy-12,11-(oxycarbonylimino)-6′-(N-methyl-N-(2-cyclopropylamino)acetylamino) Azithromycin], the MIC (in experiment [1]; in experiment [2]; with S. aureus strain MP-12; in experiment [3]; against E. coli strain MP-4) was at least 32 µg/mL throughout.
As to `CC[C@H]1OC(=O)C(C)C(=O)[C@H](C)[C@@H](OC2OC(CNCC(C)(C)O)CC(N(C)C)C2O)[C@](C)(OC)C[C@@H](C)CN[C@H](C)[C@H]2NC(=O)O[C@@]21C` (some centres unmarked) [Compound 113, 3-Descladinosyl-3-oxo-6-O-methyl-N9a-desmethyl-11,12-dideoxy-12,11-(oxycarbonylimino)-6′-(2-methylpropan-2-ol-amino) Azithromycin], the MIC in experiment [1] is at least 32 µg/mL; in experiment [2] it was at least 32 µg/mL; in the experiment on S. aureus strain MP-12, at least 32 µg/mL; in experiment [3], at least 32 µg/mL; against E. coli strain MP-4, 8 to 32 µg/mL (≈ 11.4 to 45.7 µM).
Turning to `CC[C@H]1OC(=O)[C@@](C)(F)C(=O)[C@H](C)[C@@H](O[C@@H]2OC(COC/C=C/c3cnc4ccccc4c3)CC(N(C)C)C2O)[C@](C)(OC)C[C@@H](C)C(=O)[C@H](C)[C@H]2NC(=O)O[C@@]21C` (some centres unmarked) [Compound 104], the MIC is 8 to 32 µg/mL (≈ 9.83 to 39.3 µM) in experiment [1]; at least 32 µg/mL in experiment [2]; at most 4 µg/mL in the experiment on S. aureus strain MP-12; at least 32 µg/mL in experiment [3]; at least 32 µg/mL with E. coli strain MP-4.
Turning to `CC[C@H]1OC(=O)C(C)C(=O)[C@H](C)[C@@H](O[C@@H]2O[C@H](C(C)N)CC(N(C)C)[C@H]2O)[C@](C)(OC)C[C@@H](C)CN[C@H](C)[C@H]2NC(=O)O[C@@]21C` (some centres unmarked) [Compound 181, 3-Desdadinosyl-3-oxo-6-O-methyl-N9a-desmethyl-11,12-dideoxy-12,11-(oxycarbonylimino)-6′-aminoethyl Azithromycin], the MIC in experiment [1] is at least 32 µg/mL; in experiment [2] it was at least 32 µg/mL; against S. aureus strain MP-12 it was at least 32 µg/mL; in experiment [3] it was at least 32 µg/mL; in the experiment with E. coli strain MP-4, 8 to 32 µg/mL (≈ 12.4 to 49.8 µM).
With `CC[C@H]1OC(=O)[C@@]2(C)CCO[C@](C)(C[C@@H](C)CN[C@H](C)[C@H]3NC(=O)O[C@@]31C)[C@H](O[C@@H]1O[C@H](CNC3CC3)C[C@H](N(C)C)[C@H]1O)[C@@H](C)C2=O` [Compound 202], the MIC in experiment [1] is 8 to 32 µg/mL (≈ 11.7 to 47 µM); in experiment [2], at most 4 µg/mL; against S. aureus strain MP-12, at most 4 µg/mL; in experiment [3], at least 32 µg/mL; with E. coli strain MP-4, at most 4 µg/mL.
For `CC[C@H]1OC(=O)[C@]2(C)CCO[C@](C)(C[C@@H](C)CN[C@H](C)[C@H]3NC(=O)O[C@@]31C)[C@H](O[C@@H]1O[C@H](CN3CCCCC3)C[C@H](N(C)C)[C@H]1O)[C@@H](C)C2=O` [Compound 198], the minimal inhibitory concentration (MIC) was at least 32 µg/mL in experiment [1]; 8 to 32 µg/mL (≈ 11.3 to 45.1 µM) in experiment [2]; 8 to 32 µg/mL (≈ 11.3 to 45.1 µM) against S. aureus strain MP-12; at least 32 µg/mL in experiment [3]; at most 4 µg/mL against E. coli strain MP-4.
On to `CC[C@H]1OC(=O)C(C)(C)C(=O)[C@H](C)[C@@H](O[C@@H]2O[C@H](CNC3CC3)CC(N(C)C)[C@H]2O)[C@](C)(OC)C[C@@H](C)CN[C@H](C)[C@H]2NC(=O)O[C@@]21C` (some centres unmarked) [Compound 192, 2-Methyl-3-descladinosyl-3-oxo-6-O-methy 1-N9a-desmethyl-11,12-dideoxy-12,11-(oxycarbonylimino)-6′-cylcopropylamino Azithromycin], for which the MIC in experiment [1] was at least 32 µg/mL; in experiment [2], at least 32 µg/mL; in the experiment on S. aureus strain MP-12, at least 32 µg/mL; in experiment [3], at least 32 µg/mL; in the experiment on E. coli strain MP-4, at most 4 µg/mL.
